{"source": "patent US20260159527A1", "about": "“MACROCYCLIC BCL6 DEGRADERS” (DANA-FARBER CANCER INSTITUTE, INC., priority 2022, published 2026)"}
{"biological_target": "T1, BCL6 (Homo sapiens, UniProt P41182)", "T1 construct": "Endogenous BCL6 was tagged with the 11-amino acid SmBiT through CRISPR/Cas9 gene editing; endogenous in cells; host or cells: Su-DHL-4 cells, CRISPR/Cas9 knock-in single cell clone", "test": "HiBiT cellular degradation assay (Promega) in Su-DHL-4 cells", "format": "cell-based", "details": "concentration to reach 50% degradation; endogenous BCL6 tagged with SmBiT in Su-DHL-4 cells; 24 hr of compound treatment; relative to DMSO control", "procedure": "DC50 (concentration to reach 50% degradation) values were determined from a cellular degradation assay (HiBiT, Promega™) in Su-DHL-4 cells (Table 1). Endogenous BCL6 was tagged with the 11-amino acid SmBiT through CRISPR/Cas9 gene editing and single cell clone selection. After 24 hr of compound treatment, cells were lysed and incubated with LgBiT protein to reconstitute intact nanoluciferase. Substrate was then added and relative luciferase units were measured. Degradation levels for each treatment were taken as a percentage compared to the control, 100% DMSO (Prism).", "units": {"DC50": "nM"}}
{"smiles": "CNC(=O)COc1cc2cc3cc(c2n(C)c1=O)OCCCC1CN(CC(C)C1(F)F)c1ncc(Cl)c(n1)N3", "note": "(stereo not drawn) [Compound 1]", "DC50": 1.9}
{"smiles": "CNC(=O)COc1cc2cc3cc(c2n(C)c1=O)OCCOC1CC(C)CN(C1)c1ncc(Cl)c(n1)N3", "note": "(stereo not drawn) [Compound 2]", "DC50": 0.34}
{"smiles": "CNC(=O)COc1cc2cc3cc(c2n(C)c1=O)OCCNC1CN(CC(C)C1(F)F)c1ncc(Cl)c(n1)N3", "note": "(stereo not drawn) [Compound 3]", "DC50": 0.36}
{"smiles": "CNC(=O)COc1cc2cc3cc(c2n(C)c1=O)OCCC[C@@H]1CN(C[C@H](C)C1(F)F)c1ncc(Cl)c(n1)N3", "note": "[Compound 5, 2-(((1^3R, 1^5S)-2^5-Chloro-1^4, 1^4-difluoro-1^5,4^1-dimethyl-4^2-oxo-4^1,4^2-dihydro-5-oxa-3-aza-4(6,8)-quinolina-2(2,4)-pyrimidina-1 (1,3)-piperidinacyclooctaphane-4^3-yl)oxy)-N-methylacetamide]", "DC50": 150}
{"smiles": "CNC(=O)COc1cc2cc3cc(c2n(C)c1=O)OCCO[C@H]1C[C@@H](C)CN(C1)c1ncc(Cl)c(n1)N3", "note": "[Compound 7, 2-(((1^3S, 1^5R)-2^5-chloro-1^5,4^1-dimethyl-4^2-oxo-4^1,4^2-dihydro-5,8-dioxa-3-aza-4(6,8)-quinolina-2(2,4)-pyrimidina-1 (1,3)-piperidinacyclooctaphane-4^3-yl)oxy)-N-methylacetamide]", "DC50": 121}
{"smiles": "C[C@@H]1CN2C[C@H](CCCOc3cc(cc4c3n(C)c(=O)n4CCC(C)(C)O)Nc3nc2ncc3Cl)C1(F)F", "note": "[Compound 10, (1^3S,1^5R)-2^5-chloro-1^4,1^4-difluoro-4^1-(3-hydroxy-3-methylbutyl)-1^5,4^3-dimethyl-4^2, 4^3-dihydro-4^1H-5-oxa-3-aza-4(6,4)-benzo[d]imidazola-2(2,4)-pyrimidina-1 (1,3)-piperidinacyclooctaphan-4^2-one]", "DC50": 11}
{"smiles": "C[C@H]1CN2C[C@@H](CCCOc3cc(cc4c3n(C)c(=O)n4CCC(C)(C)O)Nc3nc2ncc3Cl)C1(F)F", "note": "[Compound 11, (1^3R, 1^5S)-2^5-Chloro-1^4, 1^4-difluoro-4^1-(3-hydroxy-3-methylbutyl)-1^5,4^3-dimethyl-4^2,4^3-dihydro-4^1H-5-oxa-3-aza-4(6,4)-benzo[d]imidazola-2(2,4)-pyrimidina-1 (1,3)-piperidinacyclooctaphan-4^2-one]", "DC50": "> 400"}
{"smiles": "C[C@H]1C[C@@H]2CN(C1)c1ncc(Cl)c(n1)Nc1cc(c3c(c1)n(CCC(C)(C)O)c(=O)n3C)OCCO2", "note": "[Compound 12, (1^3R, 1^5S)-2^5-chloro-4^1-(3-hydroxy-3-methylbutyl)-1^5,4^3-dimethyl-4^2,4^3-dihydro-4^1H-5,8-dioxa-3-aza-4(6,4)-benzo[d]imidazola-2(2,4)-pyrimidina-1 (1,3)-piperidinacyclooctaphan-4^2-one]", "DC50": 2}
{"smiles": "C[C@@H]1C[C@H]2CN(C1)c1ncc(Cl)c(n1)Nc1cc(c3c(c1)n(CCC(C)(C)O)c(=O)n3C)OCCO2", "note": "[Compound 13, (1^3S,1^5R)-2^5-chloro-4^1-(3-hydroxy-3-methylbutyl)-1^5,4^3-dimethyl-4^2,4^3-dihydro-4^1H-5,8-dioxa-3-aza-4(6,4)-benzo[d]imidazola-2(2,4)-pyrimidina-1 (1,3)-piperidinacyclooctaphan-4^2-one]", "DC50": "> 400"}
{"smiles": "C[C@@H]1CN2C[C@H](NCCOc3cc(cc4c3n(C)c(=O)n4CCC(C)(C)O)Nc3nc2ncc3Cl)C1(F)F", "note": "[Compound 14, (1^3S,1^5R)-2^5-chloro-1^4,1^4-difluoro-4^1-(3-hydroxy-3-methylbutyl)-1^5,4^3-dimethyl-4^2,4^3-dihydro-41 H-5-oxa-3,8-diaza-4(6,4)-benzo[d]imidazola-2(2,4)-pyrimidina-1 (1,3)-piperidinacyclooctaphan-4^2-one]", "DC50": 2.9}
{"smiles": "C[C@H]1CN2C[C@@H](NCCOc3cc(cc4c3n(C)c(=O)n4CCC(C)(C)O)Nc3nc2ncc3Cl)C1(F)F", "note": "[Compound 15, (1^3R, 1^5S)-2^5-chloro-1^4,1^4-difluoro-4^1-(3-hydroxy-3-methylbutyl)-1^5,4^3-dimethyl-4^2,4^3-dihydro-41 H-5-oxa-3,8-diaza-4(6,4)-benzo[d]imidazola-2(2,4)-pyrimidina-1 (1,3)-piperidinacyclooctaphan-4^2-one]", "DC50": 82}
{"smiles": "C[C@H]1C[C@@H]2CN(C1)c1ncc(Cl)c(n1)Nc1cc(c3c(c1)n(CCC(C)(C)O)c(=O)n3C)OCCN2", "note": "[Compound 16, (1^3R, 1^5S)-2^5-Chloro-4^1-(3-hydroxy-3-methylbutyl)-1^5,4^3-dimethyl-4^2,4^3-dihydro-41 H-5-oxa-3,8-diaza-4(6,4)-benzo[d]imidazola-2(2,4)-pyrimidina-1 (1,3)-piperidinacyclooctaphan-4^2-one]", "DC50": 2.4}
{"smiles": "C[C@@H]1C[C@H]2CN(C1)c1ncc(Cl)c(n1)Nc1cc(c3c(c1)n(CCC(C)(C)O)c(=O)n3C)OCCN2", "note": "[Compound 17, (1^3S,1^5R)-2^5-Chloro-4^1-(3-hydroxy-3-methylbutyl)-1^5,4^3-dimethyl-4^2,4^3-dihydro-41 H-5-oxa-3,8-diaza-4(6,4)-benzo[d]imidazola-2(2,4)-pyrimidina-1 (1,3)-piperidinacyclooctaphan-4^2-one]", "DC50": 33}
{"smiles": "C[C@@H]1CN2C[C@H](CCCOc3cc(cc4c3n(C)c(=O)c(=O)n4C[C@H]3C[C@H](O)C3)Nc3nc2ncc3Cl)C1(F)F", "note": "[Compound 18-1, (1^3S,1^5R)-2^5-Chloro-1^4,1^4-difluoro-4^1-(((1r,3S)-3-hydroxycyclobutyl)methyl)-1^5,4^4-dimethyl-4^1,4^2,4^3,4^4-tetrahydro-5-oxa-3-aza-4(7,5)-quinoxalina-2(2,4)-pyrimidina-1 (1,3)-piperidinacyclooctaphane-4^2,4^3-dione]", "DC50": 31}
{"smiles": "C[C@@H]1CN2C[C@H](CCCOc3cc(cc4c3n(C)c(=O)c(=O)n4C[C@H]3C[C@@H](O)C3)Nc3nc2ncc3Cl)C1(F)F", "note": "[Compound 18-2]", "DC50": 4.4}
{"smiles": "C[C@H]1CN2C[C@@H](CCCOc3cc(cc4c3n(C)c(=O)c(=O)n4C[C@H]3C[C@H](O)C3)Nc3nc2ncc3Cl)C1(F)F", "note": "[Compound 19-1, (1^3R, 1^5S)-2^5-Chloro-1^4, 1^4-difluoro-4^1-(((1r, 3R)-3-hydroxycyclobutyl)methyl)-1^5, 4^4-dimethyl-4^1,4^2,4^3,4^4-tetrahydro-5-oxa-3-aza-4(7,5)-quinoxalina-2(2,4)-pyrimidina-1 (1,3)-piperidinacyclooctaphane-4^2,4^3-dione]", "DC50": "> 400"}
{"smiles": "C[C@H]1CN2C[C@@H](CCCOc3cc(cc4c3n(C)c(=O)c(=O)n4C[C@H]3C[C@@H](O)C3)Nc3nc2ncc3Cl)C1(F)F", "note": "[Compound 19-2, (1^3R, 1^5S)-2^5-chloro-1^4,1^4-difluoro-4^1-(((1s,3S)-3-hydroxycyclobutyl)methyl)-1^2,4^4-dimethyl-4^2,4^2,4^3,4^4-tetrahydro-5-oxa-3-aza-4(7,5)-quinoxalina-2(2,4)-pyrimidina-1 (1,3)-piperidinacyclooctaphane-4^2,4^3-dione]", "DC50": "> 400"}
{"smiles": "C[C@@H]1CN2C[C@H](CCCOc3cc(cc4[nH]c(=O)c(=O)n(C)c34)Nc3nc2ncc3Cl)C1(F)F", "note": "[Compound 28, (1^3S,1^3R)-2^5-Chloro-1^4,1^4-difluoro-1^5,4^4-dimethyl-41, 42, 43,44-tetrahydro-5-oxa-3-aza-4(7,5)-quinoxalina-2(2,4)-pyrimidina-1 (1,3)-piperidinacyclooctaphane-4^2,4^3-dione]", "DC50": 22}
{"smiles": "C[C@@H]1CN2C[C@H](CCCOc3cc(cc4c3n(C)c(=O)n4C)Nc3nc2ncc3Cl)C1(F)F", "note": "[Compound 29, (1^3S,1^5R)-2^5-chloro-1^4,1^4-difluoro-1^5,4^14^3-trimethyl-4^2,4^3-dihydro-4^1H-5-oxa-3-aza-4(6,4)-benzo[d]imidazola-2(2,4)-pyrimidina-1 (1,3)-piperidinacyclooctaphan-4^2-one]", "DC50": 76}
{"smiles": "C[C@H]1CN2C[C@@H](CCCOc3cc(cc4c3n(C)c(=O)n4C)Nc3nc2ncc3Cl)C1(F)F", "note": "[Compound 30, (1^3R155)-2^5-chloro-1^4,1^4-difluoro-1^5,4^14^3-trimethyl-4^2,4^3-dihydro-4^1H-5-oxa-3-aza-4(6,4)-benzo[d]imidazola-2(2,4)-pyrimidina-1 (1,3)-piperidinacyclooctaphan-4^2-one]", "DC50": "> 400"}
{"smiles": "C[C@@H]1CN2C[C@H](NCCOc3cc(cc4[nH]c(=O)n(C)c34)Nc3nc2ncc3Cl)C1(F)F", "note": "[Compound 31, (1^3S,1^5R)-2^5-chloro-1^4,1^4-difluoro-1^5,4^3-dimethyl-4^2,4^3-dihydro-4^1H-5-oxa-3,8-diaza-4(6,4)-benzo[d]imidazola-2(2,4)-pyrimidina-1 (1,3)-piperidinacyclooctaphan-4^2-one]", "DC50": 7.5}
{"smiles": "C[C@H]1CN2C[C@@H](NCCOc3cc(cc4[nH]c(=O)n(C)c34)Nc3nc2ncc3Cl)C1(F)F", "note": "[Compound 32, (1^3R, 1^5S)-2^5-chloro-1^4,1^4-difluoro-1^5,4^3-dimethyl-4^2,4^3-dihydro-4^1H-5-oxa-3,8-diaza-4(6,4)-benzo[d]imidazola-2(2,4)-pyrimidina-1 (1,3)-piperidinacyclooctaphan-4^2-one]", "DC50": "> 400"}
{"smiles": "C[C@@H]1CN2C[C@H](OCCOc3cc(cc4c3n(C)c(=O)n4CCC(C)(C)O)Nc3nc2ncc3Cl)C1(F)F", "note": "[Compound 33, (1^3S,1^5R)-2^5-Chloro-1^4, 1^4-difluoro-4^1-(3-hydroxy-3-methylbutyl)-1^5,4^3-dimethyl-4^2,4^3-dihydro-4^1H-5,8-dioxa-3-aza-4(6,4)-benzo[d]imidazola-2(2,4)-pyrimidina-1 (1,3)-piperidinacyclooctaphan-4^2-one]", "DC50": 1.9}
{"smiles": "C[C@H]1CN2C[C@@H](OCCOc3cc(cc4c3n(C)c(=O)n4CCC(C)(C)O)Nc3nc2ncc3Cl)C1(F)F", "note": "[Compound 34, (1^3R, 1^5S)-2^5-Chloro-1^4,1^4-difluoro-4^1-(3-hydroxy-3-methylbutyl)-1^5,4^3-dimethyl-4^2,4^3-dihydro-4 H-5,8-dioxa-3-aza-4(6,4)-benzo[d]imidazola-2(2,4)-pyrimidina-1 (1,3)-piperidinacyclooctaphan-4^2-one]", "DC50": "> 400"}
